{"source": "patent US11191705B2", "about": "“Personal cleansing compositions” (The Procter & Gamble Company, priority 2018, dated 2021)", "test_system": "Staphylococcus aureus ATCC 6538", "assay": "Combinatorial Minimum Inhibitory Concentration (cMIC) test", "assay_type": "cell-based", "set-up": "key to bacteria growth (values equal to or higher than 10 mean growth, less than 10 no growth): % of OD620 of control well without actives (full growth)", "details": "for reduction of level when combined (MIC alone / level in combination): 33.3/3.13 for hinokitiol, 12.5/6.25 for piroctone olamine", "experimental": "One way to combat the issues of cost of a material is to combine it with a lower cost material. This can be complicated depending on whether the materials interact, what each of the materials target, whether they can complement one another, how much of each is needed for efficacy, etc. This is considered to be an additive interaction between the materials, i.e. where each is doing what one would expect based on their individual properties. Occasionally, when materials are added together the combination performs better than what would be expected based on the individual performances. This is considered a synergistic relationship. Synergy can be determined through the use of a Combinatorial Minimum Inhibitory Concentration (“cMIC”) test. This can be used to determine the combinatorial effects of two chemicals on anti-bacterial activity in a tissue culture setting.\nIt has been discovered that there is a synergistic relationship between hinokitiol and a 2-pyridinol N-oxide material, piroctone olamine. cMIC testing was conducted utilizing Staphylococcus aureus as the bacteria. […] When combined, they were efficacious at levels of 6.25 ppm piroctone olamine and only 3.13 ppm of hinokitiol. Thus, a benefit is seen where the combination of piroctone olamine and hinokitiol comprise about 9 ppm or more by weight of the cleansing composition. Thus, hinokitiol and piroctone olamine levels are reduced by 10.7 times (33.3/3.13) and 2 times (12.5/6.25), respectively. […] Thus, combining piroctone olamine and hinokitiol allows for the use of less of each material and can reduce costs.\nCombinatorial Minimum Inhibitory Concentration (cMIC) Method\nA Combinatorial Minimum Inhibitory Concentration (“cMIC”) is used to determine the combinatorial effects of two chemicals on anti-bacterial activity in a tissue culture setting. Herein, the cMIC is a measure of the Minimum Inhibitory concentrations (MIC) of Hinokitiol in combination with Piroctone Olamine or vice versa.\n1. Method Overview: • a. Each cMIC assay is run in triplicates. • b. Staphylococcus aureus ATCC 6538 is cultured on tryptic soy agar (TSA) (Oxoid CM0131) over 24 hours. The single colonies are then transferred into saline and mixed through vortex to obtain an optical density (OD) of 0.08-0.13 at 620 nm. 200 μL of this bacterial suspension is added to 19.8 mL of Mueller Hinton Broth (MHB) (BD 212322). This gives 5×10^5 cfu/mL. 100 μL of this bacteria-MHB mix is added to a 96 well flat-bottomed plate (TRP 92196). • c. Hinokitiol is pipetted into the wells in varying concentrations as indicated below. • d. Piroctone Olamine is pipetted into the wells in varying concentrations, as indicated below. • e. The plates are then read using a spectrophotometer at 620 nm. This is the 0-hour reading. • f. The plates are incubated at 37° C. between 18-24 hours with shaking at 50 rpm. • g. The optical density of the plate is then measured using a spectrophotometer at 620 nm. • h. The OD value is calculated as subtraction of the readings between 18-24 hour and the 0-hour. • i. cMIC is determined as the minimal concentration of Hinokitiol in combination with Piroctone Olamine or vice versa, corresponding to the well whose OD value is less than 10% of the OD value of the control well without Hinokitiol and Piroctone Olamine (full growth)."}
{"smiles": "CC(C)c1cccc(=O)c(O)c1", "note": "[Hinokitiol]", "values": [{"measurement": "reduction of level when combined (MIC alone / level in combination)", "value": 10.7, "unit": "times"}, {"measurement": "bacteria growth (values equal to or higher than 10 mean growth, less than 10 no growth)", "setting": "Hinokitiol 3.13 ppm alone (Piroctone Olamine 0 ppm)", "value": 78}, {"measurement": "bacteria growth (values equal to or higher than 10 mean growth, less than 10 no growth)", "setting": "Hinokitiol 6.25 ppm alone (Piroctone Olamine 0 ppm)", "value": 103}, {"measurement": "bacteria growth (values equal to or higher than 10 mean growth, less than 10 no growth)", "setting": "Hinokitiol 12.5 ppm alone (Piroctone Olamine 0 ppm)", "value": 65}, {"measurement": "bacteria growth (values equal to or higher than 10 mean growth, less than 10 no growth)", "setting": "Hinokitiol 25 ppm alone (Piroctone Olamine 0 ppm)", "value": 17}, {"measurement": "bacteria growth (values equal to or higher than 10 mean growth, less than 10 no growth)", "setting": "Hinokitiol 33.5 ppm alone (Piroctone Olamine 0 ppm)", "value": 4}, {"measurement": "bacteria growth (values equal to or higher than 10 mean growth, less than 10 no growth)", "setting": "Hinokitiol 42.5 ppm alone (Piroctone Olamine 0 ppm)", "value": 2}, {"measurement": "bacteria growth (values equal to or higher than 10 mean growth, less than 10 no growth)", "setting": "Hinokitiol 50 ppm alone (Piroctone Olamine 0 ppm)", "value": 1}, {"measurement": "Bacterial growth", "setting": "Piroctone olamine 0 ppm, Hinokitiol 33.5 ppm", "value": "Yes"}, {"measurement": "MIC", "setting": "Staphylococcus aureus, ATCC6538, single material alone, read-out: minimum inhibitory concentration (MIC) against Staphylococcus aureus", "value": 33.3, "unit": "µg/mL"}]}
{"smiles": "Cc1cc(CC(C)CC(C)(C)C)n(O)c(=O)c1.NCCO", "note": "(centres unmarked) [Piroctone Olamine, piroctone olamine]", "values": [{"measurement": "reduction of level when combined (MIC alone / level in combination)", "value": 2, "unit": "times"}, {"measurement": "bacteria growth (values equal to or higher than 10 mean growth, less than 10 no growth)", "setting": "Piroctone Olamine 3.13 ppm alone (Hinokitiol 0 ppm)", "value": 94}, {"measurement": "bacteria growth (values equal to or higher than 10 mean growth, less than 10 no growth)", "setting": "Piroctone Olamine 6.25 ppm alone (Hinokitiol 0 ppm)", "value": 46}, {"measurement": "bacteria growth (values equal to or higher than 10 mean growth, less than 10 no growth)", "setting": "Piroctone Olamine 12.5 ppm alone (Hinokitiol 0 ppm)", "value": 1}, {"measurement": "bacteria growth (values equal to or higher than 10 mean growth, less than 10 no growth)", "setting": "Piroctone Olamine 15 ppm alone (Hinokitiol 0 ppm)", "value": 1}, {"measurement": "bacteria growth (values equal to or higher than 10 mean growth, less than 10 no growth)", "setting": "Piroctone Olamine 17.5 ppm alone (Hinokitiol 0 ppm)", "value": 1}, {"measurement": "bacteria growth (values equal to or higher than 10 mean growth, less than 10 no growth)", "setting": "Piroctone Olamine 20 ppm alone (Hinokitiol 0 ppm)", "value": 1}, {"measurement": "bacteria growth (values equal to or higher than 10 mean growth, less than 10 no growth)", "setting": "Piroctone Olamine 25 ppm alone (Hinokitiol 0 ppm)", "value": 2}, {"measurement": "Bacterial growth", "setting": "Piroctone olamine 6.25 ppm, Hinokitiol 0 ppm", "value": "Yes"}, {"measurement": "minimum inhibitory concentration (MIC) against Staphylococcus aureus", "setting": "single material alone", "value": 12.5, "unit": "ppm"}]}
